{"source": "ChEMBL document CHEMBL4038345", "about": "“Design, Synthesis, and Biological Evaluation of Novel Selenium-Containing Isocombretastatins and Phenstatins as Antitumor Agents” (J Med Chem, 2017)", "key": {"[1]": {"test": "Metabolic stability in Sprague-Dawley rat liver microsomes assessed as compound remaining after 120 mins in presence of NADPH by UV-based HPLC-MS/MS analysis", "type": "ADME, microsome", "settings": "read-out: Stability"}, "[2]": {"tested_on": "HCT-116", "test": "cells", "settings": "Homo sapiens, HCT-116, 48 h"}, "[3]": {"tested_on": "A549", "test": "Induction of apoptosis in human A549 cells assessed as necrotic cells at 5 nM for 24 hrs by annexin V-FITC/propidium iodide staining-based flow cytometry analysis (reference value: 0.03%)", "type": "functional"}, "[4]": {"tested_on": "A549", "test": "Induction of apoptosis in human A549 cells assessed as necrotic cells at 1 nM for 48 hrs by annexin V-FITC/propidium iodide staining-based flow cytometry analysis (reference value: 0.02%)", "type": "functional"}, "[5]": {"tested_on": "HeLa", "test": "cells", "settings": "Homo sapiens, 48 h"}, "[6]": {"tested_on": "HepG2", "test": "cells", "settings": "Homo sapiens, HepG2, 48 h"}, "[7]": {"tested_on": "A549", "test": "Induction of apoptosis in human A549 cells assessed as necrotic cells at 10 nM for 24 hrs by annexin V-FITC/propidium iodide staining-based flow cytometry analysis (reference value: 0.03%)", "type": "functional"}, "[8]": {"tested_on": "A549", "test": "Induction of apoptosis in human A549 cells assessed as early apoptotic cells at 5 nM for 48 hrs by annexin V-FITC/propidium iodide staining-based flow cytometry analysis (reference value: 0.97%)", "type": "functional"}, "[9]": {"tested_on": "A549", "test": "Induction of apoptosis in human A549 cells assessed as early apoptotic cells at 10 nM for 48 hrs by annexin V-FITC/propidium iodide staining-based flow cytometry analysis (reference value: 0.97%)", "type": "functional"}, "[10]": {"tested_on": "A549", "test": "Disruption of mitochondrial membrane potential in human A549 cells at 5 nM after 24 hrs by JC1 staining-based flow cytometry method (reference value: 0.62%)", "type": "functional"}, "[11]": {"test": "Metabolic stability in Sprague-Dawley rat liver microsomes assessed as compound remaining after 60 mins in presence of NADPH by UV-based HPLC-MS/MS analysis", "type": "ADME, microsome", "settings": "read-out: Stability"}, "[12]": {"tested_on": "A549", "test": "Disruption of mitochondrial membrane potential in human A549 cells after 24 hrs by JC1 staining-based flow cytometry method", "type": "functional, cell-based"}, "[13]": {"tested_on": "MGC-803", "test": "Antiproliferative activity against human MGC803 cells after 48 hrs by MTT assay", "settings": "MGC-803, 48 h"}, "[14]": {"test": "Half life in Sprague-Dawley rat by UV-based HPLC-MS/MS analysis", "type": "ADME", "settings": "in vivo"}, "[15]": {"tested_on": "A549", "test": "Induction of apoptosis in human A549 cells assessed as late apoptotic cells at 5 nM for 24 hrs by annexin V-FITC/propidium iodide staining-based flow cytometry analysis", "type": "functional"}, "[16]": {"tested_on": "A2780", "test": "cells", "settings": "Homo sapiens, A2780, 48 h", "description": "Antiproliferative activity against human A2780 cells after 48 hrs by MTT assay"}, "[17]": {"test": "(§1) Inhibition of porcine brain tubulin polymerization measured every 60 seconds for 90 mins by DAPI staining-based fluorescence assay", "parameters": "species or system Sus scrofa"}, "[18]": {"species_on_record": "Sus scrofa", "test": "as §1"}, "[19]": {"tested_on": "MCF7", "test": "cells", "settings": "Homo sapiens, MCF7, 48 h"}, "[20]": {"tested_on": "MDA-MB-231", "test": "Antiproliferative activity against human MDA-MB-231 cells after 48 hrs by MTT assay", "settings": "MDA-MB-231, 48 h"}, "[21]": {"test": "Resistance index, ratio of IC50 for human HepG2/DOX cells to IC50 for human HepG2 cells", "type": "functional"}, "[22]": {"tested_on": "RKO", "test": "Antiproliferative activity against human RKO cells after 48 hrs by MTT assay"}, "[23]": {"tested_on": "A549", "test": "Induction of apoptosis in human A549 cells assessed as necrotic cells at 10 nM for 48 hrs by annexin V-FITC/propidium iodide staining-based flow cytometry analysis (reference value: 0.02%)", "type": "functional"}, "[24]": {"tested_on": "A549", "test": "Disruption of mitochondrial membrane potential in human A549 cells assessed as intact mitochondrial membrane at 5 nM after 24 hrs by JC1 staining-based flow cytometry method (reference value: 99.18%)", "type": "functional"}, "[25]": {"tested_on": "LoVo", "test": "Antiproliferative activity against human LoVo cells after 48 hrs by MTT assay"}, "[26]": {"tested_on": "A549", "test": "Induction of apoptosis in human A549 cells assessed as late apoptotic cells at 1 nM for 48 hrs by annexin V-FITC/propidium iodide staining-based flow cytometry analysis", "type": "functional"}, "[27]": {"tested_on": "A549", "test": "Induction of apoptosis in human A549 cells assessed as live cells at 5 nM for 48 hrs by annexin V-FITC/propidium iodide staining-based flow cytometry analysis (reference value: 99.01%)", "type": "functional"}, "[28]": {"tested_on": "A549", "test": "Induction of apoptosis in human A549 cells assessed as late apoptotic cells at 10 nM for 24 hrs by annexin V-FITC/propidium iodide staining-based flow cytometry analysis", "type": "functional"}, "[29]": {"tested_on": "A549", "test": "Disruption of mitochondrial membrane potential in human A549 cells assessed as intact mitochondrial membrane at 10 nM after 24 hrs by JC1 staining-based flow cytometry method (reference value: 99.18%)", "type": "functional"}, "[30]": {"tested_on": "A549", "test": "Induction of apoptosis in human A549 cells assessed as early apoptotic cells at 1 nM for 24 hrs by annexin V-FITC/propidium iodide staining-based flow cytometry analysis (reference value: 0.82%)", "type": "functional"}, "[31]": {"tested_on": "A549", "test": "Induction of apoptosis in human A549 cells assessed as live cells at 1 nM for 24 hrs by annexin V-FITC/propidium iodide staining-based flow cytometry analysis (reference value: 99.15%)", "type": "functional"}, "[32]": {"tested_on": "A549", "test": "Induction of apoptosis in human A549 cells assessed as late apoptotic cells at 5 nM for 48 hrs by annexin V-FITC/propidium iodide staining-based flow cytometry analysis", "type": "functional"}, "[33]": {"tested_on": "A549", "test": "Induction of apoptosis in human A549 cells assessed as early apoptotic cells at 1 nM for 48 hrs by annexin V-FITC/propidium iodide staining-based flow cytometry analysis (reference value: 0.97%)", "type": "functional"}, "[34]": {"tested_on": "A549", "test": "Cell cycle arrest in human A549 cells assessed as increase in accumulation of cells at G2/M phase at 5 to 10 nM after 24 hrs by propidium iodide staining-based flow cytometry method", "type": "functional"}, "[35]": {"test": "Resistance index, ratio of IC50 for human A549/CDDP cells to IC50 for human A549 cells", "type": "functional"}, "[36]": {"tested_on": "A549/CDDP", "test": "Antiproliferative activity against human A549/CDDP cells after 48 hrs by MTT assay", "type": "functional, cell-based"}, "[37]": {"tested_on": "A549", "test": "Induction of apoptosis in human A549 cells assessed as early apoptotic cells at 10 nM for 24 hrs by annexin V-FITC/propidium iodide staining-based flow cytometry analysis (reference value: 0.82%)", "type": "functional"}, "[38]": {"tested_on": "A549", "test": "Induction of microtubule disruption in human A549 cells at 5 to 10 nM after 8 to 24 hrs by Hoechst 33342 staining-based laser scanning confocal immunofluorescence microscopic analysis", "type": "cell-based"}, "[39]": {"tested_on": "A549", "test": "Induction of apoptosis in human A549 cells assessed as live cells at 10 nM for 24 hrs by annexin V-FITC/propidium iodide staining-based flow cytometry analysis (reference value: 99.15%)", "type": "functional"}, "[40]": {"tested_on": "A549", "test": "Induction of apoptosis in human A549 cells assessed as necrotic cells at 1 nM for 24 hrs by annexin V-FITC/propidium iodide staining-based flow cytometry analysis (reference value: 0.03%)", "type": "functional"}, "[41]": {"tested_on": "A549", "test": "Disruption of mitochondrial membrane potential in human A549 cells at 10 nM after 24 hrs by JC1 staining-based flow cytometry method (reference value: 0.62%)", "type": "functional"}}, "note": "The source made the active and inactive calls. No cut-off for these calls is given here.", "data": [{"smiles": "C=C(c1ccc(OC)c(O)c1)c1cc(OC)c(OC)c([Se]C)c1", "values": [{"measurement": "remaining at 2 h", "setting": "[1]", "result": 33.4, "unit": "%"}, {"measurement": "IC50", "setting": "[2]", "result": 12, "unit": "nM"}, {"measurement": "Activity", "setting": "[3]", "result": 1.69, "unit": "%"}, {"measurement": "Activity", "setting": "[4]", "result": 0.86, "unit": "%"}, {"measurement": "IC50", "setting": "[5]", "result": 3, "unit": "nM"}, {"measurement": "IC50", "setting": "[6]", "result": 3, "unit": "nM"}, {"measurement": "Activity", "setting": "[7]", "result": 0.08, "unit": "%"}, {"measurement": "Activity", "setting": "[8]", "result": 15.69, "unit": "%"}, {"measurement": "Activity", "setting": "[9]", "result": 42.57, "unit": "%"}, {"measurement": "Activity", "setting": "[10]", "result": 42.63, "unit": "%"}, {"measurement": "remaining at 1 h", "setting": "[11]", "result": 62.3, "unit": "%"}, {"measurement": "Activity", "setting": "[12]", "result": "Dose-dependent effect"}, {"measurement": "IC50", "setting": "[13]", "result": 9, "unit": "nM"}, {"measurement": "half-life", "setting": "[14]", "result": 1.24, "unit": "h"}, {"measurement": "Activity", "setting": "[15]", "result": 2.52, "unit": "%"}, {"measurement": "IC50", "setting": "[16]", "result": 6, "unit": "nM"}, {"measurement": "IC50", "setting": "[17]", "result": 1380, "unit": "nM"}, {"measurement": "inhibition", "setting": "[18]", "result": "Dose-dependent effect"}, {"measurement": "IC50", "setting": "[19]", "result": 27, "unit": "nM"}, {"measurement": "IC50", "setting": "[20]", "result": 2.2, "unit": "nM"}, {"measurement": "Ratio IC50", "setting": "[21]", "result": 6.8}, {"measurement": "IC50", "setting": "[22]", "result": 11, "unit": "nM"}, {"measurement": "Activity", "setting": "[23]", "result": 13.55, "unit": "%"}, {"measurement": "Activity", "setting": "[24]", "result": 57.63, "unit": "%"}, {"measurement": "IC50", "setting": "[25]", "result": 9, "unit": "nM"}, {"measurement": "Activity", "setting": "[26]", "result": 2.86, "unit": "%"}, {"measurement": "Activity", "setting": "[27]", "result": 49.13, "unit": "%"}, {"measurement": "Activity", "setting": "[28]", "result": 1.45, "unit": "%"}, {"measurement": "Activity", "setting": "[29]", "result": 9.14, "unit": "%"}, {"measurement": "Activity", "setting": "[30]", "result": 3.63, "unit": "%"}, {"measurement": "Activity", "setting": "[31]", "result": 96.34, "unit": "%"}, {"measurement": "Activity", "setting": "[32]", "result": 24.73, "unit": "%"}, {"measurement": "Activity", "setting": "[33]", "result": 15.79, "unit": "%"}, {"measurement": "Activity", "setting": "[34]", "result": 70, "unit": "%"}, {"measurement": "Ratio IC50", "setting": "[35]", "result": 8.8}, {"measurement": "IC50", "setting": "[36]", "result": 34.4, "unit": "nM"}, {"measurement": "Activity", "setting": "[37]", "result": 49.48, "unit": "%"}, {"measurement": "Activity", "setting": "[38]", "result": "Active"}, {"measurement": "Activity", "setting": "[39]", "result": 48.49, "unit": "%"}, {"measurement": "Activity", "setting": "[40]", "result": 0.2, "unit": "%"}, {"measurement": "Activity", "setting": "[41]", "result": 90.78, "unit": "%"}]}]}
